{
  "source": "patent US9603841B2",
  "about": "“Vector delivery-based microbicides” (Rush University Medical Center, priority 2005, dated 2017)",
  "key": {"[1]": {"details": "0.5 mM in 0.1 M PBS, pH 7.4, 37° C.; cited from earlier work"}, "spermatozoa [2]": {"test_system": "spermatozoa", "details": "cited from earlier work"}, "human spermatozoa [3]": {"target": "human spermatozoa", "assay": "Inhibition of fractionated NO23-SAMMA-induced acrosomal loss by protein kinase G inhibitor", "assay_type": "cell-based", "details": "Ca2+-independent (absence of added extracellular Ca2+)", "source_text": "NO23-SAMMA, whether fractionated or not, appears, at least in part, to act through release of nitric oxide. Fractionated NO23-SAMMA-induced acrosomal loss in the absence of added extracellular Ca^2+ is inhibited by the selective protein kinase G inhibitor KT5823 (see FIG. 6). […] Acrosomal loss in human spermatozoa in response to NO donors is inhibited by protein kinase G inhibitors ([…] et al., “Signaling pathway of nitric oxide-induced acrosome reaction in human spermatozoa”, Biol. Reprod., 64: 1708-12 (2001)). […] Inhibition of acrosomal loss by the selective protein kinase G inhibitor supports this contention."}, "spermatozoa [4]": {"test_system": "spermatozoa", "details": "cited from earlier work", "remark": "listed apart in the source"}, "spermatozoa [5]": {"test_system": "spermatozoa", "assay": "Sperm immobilization (modified Sander and Cramer), motile spermatozoa", "assay_type": "cell-based", "details": "10 mM", "source_text": "Data are presented as the percentage of motile spermatozoa at each concentration of test agent. When possible, test outcomes were also reported as the concentration of agent in the semen sample that reduces motility by 50%."}, "hyaluronidase": {"test_system": "hyaluronidase", "assay": "Hyaluronidase activity inhibition", "assay_type": "biochemical", "details": "50 μM", "method": "Hyaluronidase activity was measured as described in Example 8 of U.S. Pat. No. 5,932,619. […] In contrast, the NO donor moiety of NO23-SAMMA, nitrooxypropanol, is nearly without effect."}, "human spermatozoa [6]": {"test_system": "human spermatozoa", "assay": "Acrosomal loss (AL) in human spermatozoa", "assay_type": "cell-based", "details": "for EC50: Homo sapiens, Spermatozoa", "method": "Measurement of AL was carried out as described previously. […] All reactions were carried out in either the presence or absence of added extracellular Ca^2+ (1.28 mM). […] Data are expressed as the average % maximal response, based on the AL induced by a maximally stimulating concentration of the calcium ionophore A23187.\nUnless otherwise noted, acrosomal loss data were obtained from assays that included Ca^2+ in the extracellular medium. In contrast, acrosomal loss induced by NO donors occurs independent of Ca^2+. […] Although not wishing to be limited by theory, it appears that acrosomal loss in the presence of added extracellular Ca^2+ may be due to either or both moieties, whereas acrosomal loss in the absence of Ca^2+ is due entirely to the NO donor moiety."}, "HIV-1 Bee": {"test_system": "HIV-1 Bee", "assay": "HIV-1 infected primary lymphocytes, agent added after inoculation (p24, day 7)", "assay_type": "cell-based", "details": "agent added after 2 h inoculation and washing, p24 on day 7", "method": "HIV is sensitive to inhibition by the NO donor used to synthesize NO-SAMMA (nitrooxypropanol), although substantially less than to NO-SAMMA. […] Viral replication was measured on day 7 of incubation (p24 levels)."}, "[7]": {"test_system": "C. trachomatis (serotype E/UW-5/CX)", "assay": "Infection of HeLa cells by C. trachomatis", "assay_type": "cell-based, Chlamydia trachomatis", "details": "read-out: IC50 against C. trachomatis", "method": "Effect of NO-SAMMA against C. trachomatis. […] This was followed by inoculation of the monolayer with chlamydial elementary bodies. One hour after inoculation, free microbes and/or microbicide were removed by washing, and the HeLa cell cultures were incubated for an additional 48 hours at 37° C. Chlamydia-induced inclusions were measured by immunofluorescence, after reacting cultures with Kallsted chlamydia culture confirmation fluorescein-conjugated monoclonal antibody."}, "[8]": {"test_system": "vaginal/cervical epithelial and other cells", "details": "cited from earlier work"}},
  "note": "Where two headings read alike, the source gives them in different places.",
  "data": [
    {"compound": "CC/C(=C\\C(=N/O)C(N)=O)C(C)[N+](=O)[O-]", "note": "(racemic) [NOR-3, (±)-E-4-ethyl-2-[(E)-hydroxyimino]-5 nitro-3-hexenamide]", "values": [
      {"measurement": "half-life", "setting": "[1]", "result": "about 30 minutes"}
    ]},
    {"compound": "NCCOB(c1ccccc1)c1ccccc1", "note": "[2-APB]", "values": [
      {"measurement": "effect on SAMMA-induced acrosomal loss", "setting": "spermatozoa [2]", "result": "not inhibited"}
    ]},
    {"compound": "CCCCCCOC(=O)[C@]1(O)C[C@@H]2O[C@@]1(C)n1c3ccccc3c3c4c(c5c6ccccc6n2c5c31)C(=O)NC4", "note": "[KT5720]", "values": [
      {"measurement": "effect on SAMMA-induced acrosomal loss", "setting": "spermatozoa [2]", "result": "not inhibited"}
    ]},
    {"compound": "COC(=O)[C@@]1(OC)C[C@H]2O[C@]1(C)n1c3ccccc3c3c4c(c5c6ccccc6n2c5c31)C(=O)N(C)C4", "note": "[KT5823]", "values": [
      {"measurement": "inhibition of SAMMA-induced acrosomal loss", "setting": "spermatozoa [2]; 2 μM", "result": "> 95", "unit": "%"},
      {"measurement": "IC50", "setting": "human spermatozoa [3]", "result": 700, "unit": "nM"},
      {"measurement": "effect on NO donor-induced acrosomal loss", "setting": "spermatozoa [4]; 2 μM", "result": "not inhibited"}
    ]},
    {"compound": "O=[N+]([O-])OCCCO", "note": "[Nitrooxypropanol, 3-nitrooxy-1-propanol]", "values": [
      {"measurement": "% Motile Spermatozoa av ± SEM (n = 4)", "setting": "spermatozoa [5]", "result": "66 ± 0.5", "unit": "at 10 mM %"},
      {"measurement": "Inhibition ± SEM (N = 4)", "setting": "hyaluronidase", "result": "8 ± 1.8", "unit": "% at 50 μM"},
      {"measurement": "EC50", "setting": "human spermatozoa [6]; Ca2+-independent, read-out: ED50 acrosomal loss", "result": 120, "unit": "nM"},
      {"measurement": "EC50", "setting": "human spermatozoa [6]; read-out: ED50 as a stimulus of acrosomal loss", "result": 120, "unit": "nM"},
      {"measurement": "IC50", "setting": "HIV-1 Bee; Human immunodeficiency virus 1, Lymphocyte", "result": 2540, "unit": "µg/mL"},
      {"measurement": "concentration giving 80% reduction (printed in the 3-Log reduction column)", "setting": "HIV-1 Bee", "result": "1017 (80% reduction) μg/mL"}
    ]},
    {"compound": "O=c1onc2cnc3ccccc3n12", "note": "[ODQ]", "values": [
      {"measurement": "inhibition of SAMMA-induced acrosomal loss", "setting": "spermatozoa [2]; 0.1 μM", "result": "~50", "unit": "%"}
    ]},
    {"compound": "O=c1c2nc(Br)n([C@@H]3O[C@@H]4CO[P@@](O)(=S)O[C@H]4[C@H]3O)c2nc2[nH]c(-c3ccccc3)cn12", "note": "[Rp-8-Br-PET-cGMPS]", "values": [
      {"measurement": "effect on NO donor-induced acrosomal loss", "setting": "spermatozoa [4]; 0.35 μM", "result": "not inhibited"}
    ]},
    {"compound": "nitroprusside", "values": [
      {"measurement": "IC50", "setting": "[7]", "result": 23000, "unit": "nM"},
      {"measurement": "% maximal AL", "setting": "human spermatozoa [6]; 22 μM", "result": 74, "unit": "%"}
    ]},
    {"compound": "nonoxynol-9", "values": [
      {"measurement": "lowest concentration that can injure cells", "setting": "[8]", "result": "about 0.0005%"}
    ]}
  ]
}
